Patent US5747493A, “Dopamine re-uptake inhibitor” (Pola Chemical Industries, Inc., priority 1993, dated 1998)
Structures can show the parent of a compound that is named as a salt.

How the values were obtained:
[^3 H]-DA re-uptake = inhibition of [^3 H]-DA re-uptake in corpus striatum homogenate; assay type: biochemical, Sprague-Dawley rats; conditions: for amount of DA re-uptake: 2 min
Description: Investigation as to inhibition of [^3 H]-DA re-uptake
Corpus striatum samples of Sprague-Dawley rats (SD rats) were used to investigate the inhibition of [^3 H]-DA re-uptake.
More specifically, after an SD rat (aged 8 weeks, male) was decapitated, its corpus striatum was taken out while keeping on ice. A Krebs-Henseleit buffer in an amount ten times of the corpus striatum was added thereto to homogenize the resultant mixture by means of a Teflon homogenizer, thereby obtaining a homogenate. To this homogenate, were added nialamide as a monoamine oxidase inhibitor, ascorbic acid as an antioxidant and a test agent to preincubate the resulting mixture at 37° C. for 5 minutes. […] After the reaction mixture was filtered by means of a cell harvester in which a filter had been set, the filter was washed twice with physiological saline. The washed filter was placed in a vial, and 10 ml of Aquazol-2 were added to leave the filter to stand overnight. Thereafter, the radioactivity of the sample was measured by a liquid scintillation counter.
Compound 1 according to the present invention was used as a test agent. The test agent was prepared into a 10^-2 M solution in dimethyl sulfoxide, and the solution was diluted with a Krebs-Henseleit buffer before its use. With the concentrations of the test substances, 11 points were selected within a range of from 10^-10 M to 10^-5 M to plot the concentration versus the amount of DA re-uptake. From this plot, an IC50 value was determined.

Wistar rats (male) = assay: quantity of spontaneous movement; assay type: in vivo; conditions: intraperitoneal, 3 hours; for Number of times of rising: control 2; for Number of times of traversing: control 20
Description: Determination of quantity of spontaneous movement
Wistar rats (male) aged 7 weeks were used to confirm the effect of Compound 1 on spontaneous movement. […] The number of times of traversing sections of a floor and the number of times of rising were used as indices of the quantity of movement. The test agent was used in doses of from 0.1 mmol/kg down to 0.01 mmol/kg. Besides, physiological saline alone was used as a control.

OC(CNc1ccccc1)CN1CCN(CCCC(c2ccc(F)cc2)c2ccc(F)cc2)CC1 (stereo not drawn) [Compound 1, 1-[4,4-Bis(4-fluorophenyl)-butyl]-4-(2-hydroxy-3-phenyl-aminopropyl)piperazinedihydrochloride]
IC50 ([^3 H]-DA re-uptake; SD rat corpus striatum homogenate, 37° C., 2 minutes reaction): 6.79 nM | amount of DA re-uptake ([^3 H]-DA re-uptake; concentration of test substance -log (mol) 6, 1 µM): 0% | amount of DA re-uptake ([^3 H]-DA re-uptake; concentration of test substance -log (mol) 6.5, 0.316 µM): 0% | amount of DA re-uptake ([^3 H]-DA re-uptake; concentration of test substance -log (mol) 7, 0.1 µM): 2% | amount of DA re-uptake ([^3 H]-DA re-uptake; concentration of test substance -log (mol) 8, 0.01 µM): 38% | amount of DA re-uptake ([^3 H]-DA re-uptake; concentration of test substance -log (mol) 9, 0.001 µM): 80% | amount of DA re-uptake ([^3 H]-DA re-uptake; concentration of test substance -log (mol) 10, 0.0001 µM): 92% | inhibition of DA re-uptake (in words) ([^3 H]-DA re-uptake; conclusion from IC50 and Table 3): potent activities of inhibiting DA re-uptake | Number of times of rising (Wistar rats (male); 0.01 mmol/kg): 69 times | Number of times of traversing (Wistar rats (male); 0.01 mmol/kg): 253 times | Number of times of rising (Wistar rats (male); 0.03 mmol/kg): 156 times | Number of times of traversing (Wistar rats (male); 0.03 mmol/kg): 267 times | Number of times of rising (Wistar rats (male); 0.1 mmol/kg): 121 times | Number of times of traversing (Wistar rats (male); 0.1 mmol/kg): 287 times | quantity of spontaneous movement (in words) (Wistar rats (male); 0.01 to 0.1 mmol/kg, hydrochloride): enhances the quantity of the spontaneous movement to a marked extent
